As usually defined, the IC50 is the concentration that gives 50% inhibition.

Where two headings read alike, the source gives them in different places. Where only a bound is given, the exact number is not on record here.

Consider ten molecules from patent publication US5644053A, “Penam derivatives” (Hoffmann-La Roche Inc., priority 1994, dated 1997).

Assay [1] addresses β-lactamase. In kind it is biochemical. Conditions: read-out: IC50 E. coli CF 102 (β-lactamase inhibition).
Method: Various β-lactamases can be isolated from penicillin- or cephalosporin-resistant bacterial strains such as Klebsiella pneumonia NCTC 418, Proteus vulgaris 1028, Bacillus licheniformis 749/C, Escherichia coil SN01 and Citrobacter freundii 1203. For this purpose, the corresponding strains are cultivated in Tryptic Soy Broth (Difco) and harvested by centrifugation in the last logarithmic growth phase (when necessary 50-100 mg/l of ampicillin are added to the medium towards the end of the log-phase in order to induce the β-lactamase). The thus-obtained bacterial mass is treated with 20 mM Tris-HCl buffer (pH 7.0); the cells are broken open with a French press while cooling. The mixture is centrifuged (20,000 r/min.) for 20-30 minutes and a clear crude extract is obtained.
(§4) The determination of the activity of the isolated β-lactamases can be carried out according to the method of O'-Callaghan, C. […] The requisite test batch contains per ml of water: 50 mM phosphate buffer (pH 7.0), 0.1 mM nitrocefin and sufficient enzyme (β-lactamase) to achieve a ΔA/min. of about 0.1.
(§5) The determination of the IC50 was effected by means of a graph.
The target in assay [2] is β-lactamase (Citrobacter freundii, UniProt P05193). Conditions: read-out: IC50 C. freundii 1982 (β-lactamase inhibition).
Method: For this purpose, the corresponding strains are cultivated in Tryptic Soy Broth (Difco) and harvested by centrifugation in the last logarithmic growth phase (when necessary 50-100 mg/l of ampicillin are added to the medium towards the end of the log-phase in order to induce the β-lactamase). The thus-obtained bacterial mass is treated with 20 mM Tris-HCl buffer (pH 7.0); the cells are broken open with a French press while cooling. The mixture is centrifuged (20,000 r/min.) for 20-30 minutes and a clear crude extract is obtained.
as §4, §5
The subject of a further assay is E. coli. Put plainly: In vitro activity of combinations with selected antibiotics against β-lactamase over-producer strains, E. coli. Format: cell-based. Conditions: β-lactamase over-producer strain; combinations: constant inhibitor concentration 4 mg/l; unit assumed. The protocol:
(§1) In vitro activity of combinations of Example 5c with selected
(§2) antibiotics against β-lactamase over-producer strains
(§3) (constant inhibitor concentration: 4 mg/l)

A further assay relates to E. cloacae. Put plainly: In vitro activity of combinations with selected antibiotics against β-lactamase over-producer strains, E. cloacae. In kind it is cell-based. Conditions: β-lactamase over-producer strain; combinations: constant inhibitor concentration 4 mg/l; unit assumed. The protocol: as §1, §2, §3
The test system of the next assay is Ps. aeruginosa. Put plainly: In vitro activity of combinations with selected antibiotics against β-lactamase over-producer strains, Ps. aeruginosa. In kind it is cell-based. Conditions: β-lactamase over-producer strain; combinations: constant inhibitor concentration 4 mg/l; unit assumed. As for the experimental part:
as §1, §2, §3

A further assay has as its system C. freundii. In words: In vitro activity of combinations with selected antibiotics against β-lactamase over-producer strains, C. freundii. Format: cell-based. Conditions: β-lactamase over-producer strain; combinations: constant inhibitor concentration 4 mg/l; unit assumed. As for the experimental part: as §1, §2, §3
The mark [3] stands for this setting: isolated enzyme, nitrocefin substrate, pH 7.0, 37° C., 15 min pre-incubation.

Chain of β-lactamase (Citrobacter freundii, UniProt P05193) (P05193 21-381): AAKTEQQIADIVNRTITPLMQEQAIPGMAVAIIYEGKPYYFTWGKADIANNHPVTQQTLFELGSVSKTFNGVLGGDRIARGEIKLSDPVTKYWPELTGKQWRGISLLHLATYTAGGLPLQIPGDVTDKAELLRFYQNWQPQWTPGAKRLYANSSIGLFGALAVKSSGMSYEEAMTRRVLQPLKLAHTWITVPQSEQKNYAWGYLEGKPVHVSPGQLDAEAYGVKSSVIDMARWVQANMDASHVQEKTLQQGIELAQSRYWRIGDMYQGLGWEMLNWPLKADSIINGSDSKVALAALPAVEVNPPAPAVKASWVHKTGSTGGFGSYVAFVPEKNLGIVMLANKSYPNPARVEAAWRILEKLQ

With `CCOC(=O)/C=C/[C@@]1(C)[C@H](C(=O)O)N2C(=O)C[C@H]2S1(=O)=O` [2c (trans ethyl ester), Sodium (E)-(2S,3S,5R)-3-(2-ethoxycarbonyl-vinyl)-3-methyl-4,4,7-trioxo-4-thia-1-aza-bicyclo[3.2.0]heptane-2-carboxylate], on β-lactamase [1] (pH 7), the IC50 was found to be 456 nM.
Take `C[C@]1(/C=C\C#N)[C@H](C(=O)O)N2C(=O)C[C@H]2S1(=O)=O` [5c (cis nitrile), Sodium (Z)-(2S,3S,5R)-3-(2-cyanoethenyl)-3-methyl-4,4,7-trioxo-4-thia-1-aza-bicyclo [3.2.0]heptane-2-carboxylate]: the IC50 on β-lactamase [1] (pH 7) stood at 126 nM.
With `C[C@]1(/C=C/C#N)[C@H](C(=O)O)N2C(=O)C[C@H]2S1(=O)=O` [5c (trans nitrile), Sodium (E)-(2S,3S,5R)-3-(2-cyanoethenyl)-3-methyl-4,4,7-trioxo-4-thia-1-aza-bicyclo[3.2.0]heptane-2-carboxylate], the IC50 on β-lactamase [1] (pH 7) amounted to 681 nM.
Consider `C[C@]1(/C=C\C(N)=O)[C@H](C(=O)O)N2C(=O)C[C@H]2S1(=O)=O` [6c (cis amide), Sodium (Z)-(2S,3S,5R)-3-(2-carbamoyl-vinyl)-3-methyl-4,4,7-trioxo-4-thia-1-aza-bicyclo[3.2.0]heptane-2-carboxylate], for which the results for the IC50 at β-lactamase [1] (pH 7) and at β-lactamase [2] (setting [3]) were 130 nM and 4340 nM, respectively.
For the molecule `C[C@]1(/C=C/C(N)=O)[C@H](C(=O)O)N2C(=O)C[C@H]2S1(=O)=O` [6c (trans amide), Sodium (E)-(2S,3S,5R)-3-(2-carbamoyl-vinyl)-3-methyl-4.4.7-trioxo-4-thia-1-azabicyclo[3.2.0]heptane-2-carboxylate], the results for the IC50 at β-lactamase [1] (setting [3]) and at β-lactamase [2] (setting [3]) were 54 nM and 2250 nM, respectively.
In the case of `CC1(C)S[C@@H]2[C@H](NC(=O)[C@H](NC(=O)c3cnc4cccnc4c3O)c3ccccc3)C(=O)N2[C@H]1C(=O)O` [Apalcillin], in the assay on E. coli, the MIC E. coli is greater than 64 µg/mL. In the assay with E. cloacae, the MIC E. cloacae is greater than 128 µg/mL. The MIC Ps. aeruginosa in the assay with Ps. aeruginosa was determined as 64 µg/mL. In the assay with C. freundii, the MIC C. freundii was greater than 128 µg/mL.
In the case of `CC(C)(O/N=C(\C(=O)N[C@@H]1C(=O)N2C(C(=O)[O-])=C(C[n+]3ccccc3)CS[C@H]12)c1csc(N)n1)C(=O)O` [Ceftazidime], the MIC E. coli with E. coli stood at 32 µg/mL. The MIC E. cloacae with E. cloacae was greater than 64 µg/mL. Moreover, the MIC Ps. aeruginosa in the assay with Ps. aeruginosa worked out at 32 µg/mL. In addition, in the assay on C. freundii, the MIC C. freundii is greater than 64 µg/mL.
For `CO/N=C(\C(=O)N[C@@H]1C(=O)N2C(C(=O)O)=C(CSc3nc(=O)c(=O)[nH]n3C)CS[C@H]12)c1csc(N)n1` [Ceftriaxone], the MIC E. coli with E. coli amounted to 16 µg/mL. The MIC E. cloacae in the assay on E. cloacae was greater than 64 µg/mL. The MIC Ps. aeruginosa in the assay on Ps. aeruginosa is greater than 64 µg/mL. Moreover, the MIC C. freundii in the assay on C. freundii is 64 µg/mL.
For the molecule `CCN1CCN(C(=O)N[C@@H](C(=O)N[C@@H]2C(=O)N3[C@@H]2SC(C)(C)[C@@H]3C(=O)O)c2ccccc2)C(=O)C1=O` [Piperacillin], the MIC E. coli in the assay with E. coli is greater than 64 µg/mL. In addition, the MIC E. cloacae in the assay on E. cloacae was greater than 128 µg/mL. Besides, the MIC Ps. aeruginosa in the assay on Ps. aeruginosa is greater than 64 µg/mL. For the same molecule, the MIC C. freundii with C. freundii was greater than 128 µg/mL.
As for `C[C@]1(Cn2ccnn2)[C@H](C(=O)O)N2C(=O)C[C@H]2S1(=O)=O` [Tazobactam], the 50% inhibitory concentration (IC50) at β-lactamase [1] (setting [3]) is 15 nM; at β-lactamase [2] (pH 7), 900 nM.
